Laboratory results as given in US4201784A, “Substituted 2-[2'-(5"-nitrofuryl-2")vinyl-and 4'-(5"-nitrofuryl-2"-1,3-butadieryl]quinoline-4-carboxylic acid amides and salts thereof” (Institut Organicheskogo Sinteza Akademii Nauk Latviiskoi SSR, priority 1977, dated 1980).

What was measured:
Ehrlich ascitic tumor = experiment: Antitumor activity, life prolongation of mice with Ehrlich ascitic tumor; format: in vivo
Procedure: The experiment was conducted as follows. 10^6 cells of Erlich tumuor were injected in common white mice intraperitoneally, the dose being given per each animal. […] Each dose of the preparation was tested in six mice. The control group included 18 mice. Giniquine solution was prepared by dissolving the substance ex tempore in distilled water or in a buffer. The effect of the preparation is shown on charts 1,2,3.

sarcoma 37 = experiment: Antitumor activity, life prolongation, sarcoma 37; format: in vivo, mice
Procedure: (§1) Apart from the tests on Ehrlich ascitic tumor, giniquine was studied on twelve more inoculated tumors. Seven tumors (melanoma B16, sarcoma AK, large intestine carcinoma acatol-1, sarcoma 180, adenocarcinoma 755, Lewis lung carcinoma and sarcoma 37) were inoculated subcutaneously with 50 mg of tumoral cells per mouse. Four tumors (lymphatic leukemies L 5178, L 5178Y, L 1210 and P-388) were inoculated intraperitoneally with 10^6 cells per mouse. One tumor (La, hemocytoblastosis) was inoculated intraperitoneally by injecting 50 mg of cell suspension of spleen and liver of mice suffering La hemocytoblastosis, per mouse. Giniquine was injected intraperitoneally five times for seven days: 1,2,3,4,7 days or 3,4,5,6,7 days after the implantation of tumor. The rate of deceleration of the tumor growth was established 14 days after the ultimate injection of giniquine; life of test animals was recorded for 60 days.

La hemocytoblastosis = experiment: Antitumor activity, La hemocytoblastosis; format: in vivo, mice
Procedure: as §1

adenocarcinoma 755 = experiment: Antitumor activity, adenocarcinoma 755; format: in vivo, mice
Procedure: as §1

[1] = Biological availability, ascites of mice with Ehrlich ascitic carcinoma; format: in vivo
Procedure: The biological availability of giniquine was studied on common white male rats with a mass of 150-200 g and common white male mice with a mass of 25-30 g. The test began seven days after Ehrlich ascitic carcinoma was inoculated to the animals.
Giniquine was injected intraperitoneally in 100 mg/kg doses, using distilled water as a solvent. The animals were slaughtered at preset time intervals (5,15,30 and 60 minutes) and a biological material (blood and liver for rats and ascites for mice) was taken for analysis. To separate ascitic fluid from the tumor cells, ascites was centrifuged at 2000 r.p.m. for 10 minutes. The precipitate was washed with a mixture of physiological solution and heparin and was again centrifuged under the same conditions, 20% homogenates in distilled water were prepared from ascitic cells.
Giniquine was extracted from the biological material with chloroform.
The extraction procedure comprised the following stages: 0.1 ml of ethyl alcohol were added to 1 ml of tested sample and the solution was thoroughly mixed with 0.5 ml of a saturated potassium carbonate solution, then 4 ml of chloroform was added. Closed test tubes were vigorously shaken on a rocker for one hour. After the shaking, the samples were centrifuged at 5000 r.p.m. for ten minutes. The chloroform layer was used for analysis. Daylight was avoided.
Concentration of the preparation in biological samples was determined by spectrophotometry at 400 nm using molar absorption factor (ε0.10^-3 =36.04).
The results were expressed in μg/ml of sample. Minimum sensitivity of the method was 1.1 μg/ml.

[2] = LD50 / toxicity, mice with 7-days Ehrlich ascitic tumor; format: in vivo; details: for LD50: mouse, in vivo
[3] = BDF1 female mice, intraperitoneal, days 1,2,3,4,7, optim. daily dose 6.0 mg/kg

Compound: CCN(CC)CCCC(C)NC(=O)c1cc(C=Cc2ccc([N+](=O)[O-])o2)nc2ccccc12 (stereo not drawn) [giniquine, 2-[2'-(5"-nitrofuryl-2")vinyl]quinoline-4-carboxylic acid (α-methyl-δ-diethylaminobutyl)amide triphosphate]
- dependence of antitumoral effect on solution concentration (Ehrlich ascitic tumor; 0.1 to 0.35% solution): did not change within this range of concentrations
- prolongation of life (Ehrlich ascitic tumor; Chart 1, intraperitoneal injection): 100%
- prolongation of life (Ehrlich ascitic tumor; Chart 1, intravenous injection): 25%
- antitumor effect, single versus five injections (Ehrlich ascitic tumor; Chart 2, single intraperitoneal injection on first day vs five injections at 1,2,3,4,7 days): the same
- prolongation of life (Ehrlich ascitic tumor; Chart 3, intraperitoneal injection on 7th day): 100%
- prolongation of life (Ehrlich ascitic tumor; Chart 3, intraperitoneal injection on 14th day): 55%
- prolongation of life (Ehrlich ascitic tumor; Chart 3, intraperitoneal injection on first day after implantation): 90%
- prolongation of life (Ehrlich ascitic tumor; Chart 3, intraperitoneal injection on third day): 80%
- Max. life prolong. (sarcoma 37; common female mice, intraperitoneal, days 1,2,3,4,7, daily doses 6.0-28.0 mg/kg, optimum daily dose 0): 0%
- antiblastic activity / sensitivity (in words) (sarcoma 37; sarcoma 37): practically insensitive
- Max. life prolong. (La hemocytoblastosis; C57 BL/6Y female mice, intraperitoneal, days 1,2,3,4,7, optimum daily dose 10.0 mg/kg): 5%
- antitumor effect / sensitivity (in words) (La hemocytoblastosis; La hemocytoblastosis): practically insensitive
- Deceleration of tumor growth (adenocarcinoma 755; [3]): 28%
- Max. prolongation of life (adenocarcinoma 755; [3]): 25%
- antitumor effect (in words) (adenocarcinoma 755; adenocarcinoma 755): slight antitumor effect
- concentration in tumoral cells versus ascitic fluid (in words) ([1]; 60 minutes): also greater than that in ascitic fluid
- time of maximum concentration in ascitic cells ([1]; intraperitoneal 100 mg/kg): five minutes
- concentration in ascitic cells versus ascitic fluid ([1]; intraperitoneal 100 mg/kg, five minutes): four times greater
- accumulation (in words) ([1]; intraperitoneal injection): mainly accumulates in ascitic cells
- Cmax at 5 min ([1]; mouse, ascitic cells, ip, intraperitoneal 100 mg/kg, five minutes, read-out: maximum concentration in ascitic cells): 40000 ng/mL
- concentration at 5 min ([1]; mouse, ascitic fluid, ip, intraperitoneal 100 mg/kg, five minutes): 10000 ng/mL
- toxicity compared to intraperitoneal injection ([2]; intravenous injection): five times greater
- LD50 ([2]; ip, intraperitoneal, ten injections, female): 10 mg/kg
- LD50 ([2]; ip, intraperitoneal, ten injections, male): 7 mg/kg
- LD50 ([2]; iv, single injection, female): 17.5 mg/kg
- LD50 ([2]; iv, single injection, male): 20 mg/kg
